The values below are quoted from earlier work in US8410056B2, “Pro-oxidant anti-cancer compounds” (priority 2006, dated 2013).

What is called IC50 is the concentration that gives 50% inhibition.

Data set [1] deals with Jurkat, HVT11, MCF7, MCF7-C3, U937, Meso-2. The settings on record: cited from earlier work.
In the next data set the test system is LNCaP, PC-3. The settings on record: Shiau et al, 2006; cited from earlier work.
The test system of a further data set is MCF7. The settings on record: cited from earlier work.
The next data set concerns MDA-MB-435. The settings on record: cited from earlier work.
A further data set concerns B16(F10). The conditions noted are these: B16(F10); He et al, 1997; cited from earlier work.
Data set [2] relates to neoplastic + SA mammary epithelial cells. The conditions noted are these: cited from earlier work.

As for `Cc1cc(OC(=O)CCC(=O)O)c(C)c2c1OC(C)(CCCC(C)CCCC(C)CCCC(C)C)CC2` (stereo not shown) [Compound 32], the “IC50, relative to α-TOS” value in data set [1] was 50% of α-TOS.

As for `Cc1c(C)c2c(c(C)c1OC(=O)CCC(=O)O)CCC(C)(C)O2` [Compound 46], the IC50 in the data set with LNCaP, PC-3 was greater than 100 µM.

Take `CC(C)=CCC/C(C)=C/CC/C(C)=C/CC[C@]1(C)CCc2c(C)c(O)c(C)c(C)c2O1` [Compound 53, α-tocotrienol]: the concentration for half-maximal inhibition (IC50) in the data set with MCF7 was 14 µM; with MDA-MB-435 it was 210 µM; in the data set on B16(F10), 110 µM.

Consider `CC(C)=CCC/C(C)=C/CC/C(C)=C/CC[C@]1(C)CCc2cc(O)c(C)c(C)c2O1` [Compound 56, γ-tocotrienol], for which the IC50 is 20 µM in the data set with B16(F10) and 4 µM in data set [2].
